Test results reported in US20230293521A1, “METHODS FOR SCREENING NOVEL CORONAVIRUS ANTIVIRALS AND METHODS OF USING ANTIVIRALS FOR THE TREATMENT OF CORONAVIRUS INFECTIONS” (priority 2020, published 2023).
Like-named read-outs stand apart in the source and are kept apart here.

Columns and labels:
SARS-CoV-2 [1] = assay: microbe, parasite or virus in culture; assay type: cell-based; conditions: for IC50: Calu-3, pre-treated 1 hour, MOI 0.01, supernatants at 48 hpi
[2] = tested on: SARS-CoV-2 replication centers; assay: Confocal immunofluorescence of SARS-CoV-2 N and dsRNA replication centers in Calu-3 cells; assay type: cell-based; conditions: for distribution of SARS-CoV-2 N and dsRNA (replication center formation): Calu-3, pre-treated, MOI 3, fixed at 24 h.p.i.; for IC90: read-out: approximate IC90 (concentration used for pre-treatment)
[3] = tested on: SARS-CoV-2 genomic RNA, subgenomic N RNA and NSP14 RNA; assay type: cell-based; conditions: for viral RNA levels: Calu-3, both MOI 0.01 and 1; for reduction in RNA synthesis compared with reduction in viral titers: Calu-3, 24 hpi
SARS-CoV-2 [4] = assay: microbe, parasite or virus in culture; assay type: cell-based
SARS-CoV-2 [5] = assay: Time of addition studies, impedance assay in VeroE6 cells; assay type: cell-based; conditions: for inhibition of SARS-CoV-2 replication, single treatment 1 hour prior to infection, compound removed prior to infection: VPS34 inhibitors at 5 µM; for inhibition of SARS-CoV-2 replication, compound added up to 4 hpi: dosing at 2 hpi or 4 hpi, compound maintained
VPS34 = assay type: cell-based; conditions: Huh7, 24 hours treatment; VPS34-IN1 2 µM, PIK-III, SAR405, Compound 19 5 µM, Orlistat 200 µM
Vero E6 cells = conditions: for cytotoxicity (rapid decrease in resistance between 1 and 20 hpi): at 50 µM and 16.67 µM
[6] = Severe acute respiratory syndrome coronavirus 2, Calu-3

In the case of `CCCCCCCCCCCCCCC(Br)C(=O)O` (stereo not drawn) [2-bromopalmitate], the “concentrations at which infectious virus production was inhibited” value (SARS-CoV-2 [1]; Calu-3, MOI 0.01, 48 hpi) is reported as “greater than 10 µM”, the IC50 (SARS-CoV-2 [1]) is reported as 23 µM and the “distribution of SARS-CoV-2 N and dsRNA (replication center formation)” value (shortened to “distribution of SARS-CoV-2 N and dsRNA”) [2] is reported as “fewer but larger foci positive for both markers”. The “viral RNA levels” value [3] was “reduced RNA levels”.

For `O=C(Nc1ccccc1)Nc1ccc(-c2ccc(C(=O)[C@@H]3CCC[C@H]3C(=O)O)cc2)cc1` [A922500], the IC50 (SARS-CoV-2 [1]) was 4.02 µM, the “distribution of SARS-CoV-2 N and dsRNA” value [2] was “loss of these distinct puncta and dispersion of dsRNA and SARS-CoV-2 N” and the “reduction in RNA synthesis compared with reduction in viral titers” value [3] was “significantly less substantial than the reduction in viral titers”.

For `Cc1nc(NC(=O)N2CCC[C@H]2C(N)=O)sc1-c1ccnc(C(C)(C)C(F)(F)F)c1` [BYL719], the “decrease in viral titers” value (SARS-CoV-2 [4]) was 1 log and the “inhibition of SARS-CoV-2 replication” value (SARS-CoV-2 [4]) was “little inhibition was detected”.

In the case of `C=C1C(=O)O[C@H](CCCCCCCC)[C@H]1C(=O)O` [C75, tetrahydro-4-methylene-2R-octyl-5-oxo-3S-furancarboxylic acid], the IC50 (SARS-CoV-2 [1]) is reported as 22.8 µM.

For `CCOC(=O)[C@@]1(CCCCCCOc2ccc(Cl)cc2)CO1` [Etomoxir], the “inhibition of SARS-CoV-2” value (SARS-CoV-2 [1]; Calu-3, MOI 0.01, 48 hpi) was “Neither compound showed any inhibition”.

In the case of `CCCCCCCCCCC[C@@H](C[C@@H]1OC(=O)[C@H]1CCCCCC)OC(=O)[C@H](CC(C)C)NC=O` [Orlistat], the “inhibition of SARS-CoV-2 replication, single treatment 1 hour prior to infection, compound removed prior to infection” value (from here on “inhibition … to infection”) (SARS-CoV-2 [5]) is reported as “minimal efficacy”, the “inhibition of SARS-CoV-2 replication, compound added up to 4 hpi” value (“inhibition … to 4 hpi” for short) (SARS-CoV-2 [5]) is reported as “remained inhibitory” and the IC50 (SARS-CoV-2 [4]; [6]) is reported as 21.2 µM. The “effect on GFP-2xFYVE localization to endosomes” value (VPS34) was “did not affect GFP-2xFYVE localization”, the “distribution of SARS-CoV-2 N and dsRNA” value [2] was “loss of these distinct puncta and dispersion of dsRNA and SARS-CoV-2 N” and the IC90 [2, 6] was roughly 500 µM. The “viral RNA levels” value [3] was “reduced RNA levels” and the “early cytotoxic effects (1-20 hours post-treatment)” value (Vero E6 cells) was “neither Orlistat nor Triacsin C induced early cytotoxic effects”.

`Nc1ncc(-c2ccnc(Nc3ccncc3)n2)c(CC2CC2)n1` [PIK-III] was tested, and the “inhibition … to infection” value (SARS-CoV-2 [5]) was “inhibited SARS-CoV-2 replication”, the “inhibition … to 4 hpi” value (SARS-CoV-2 [5]) was “inhibition could be observed” and the IC50 (SARS-CoV-2 [4]; [6]) was 0.12 µM. For the same compound, the IC90 [2, 6] was roughly 5 µM, the “toxicity at the remaining concentrations” value (Vero E6 cells) was “no toxicity was observed” and the “cytotoxicity (rapid decrease in resistance between 1 and 20 hpi)” value (Vero E6 cells; Vero E6) was “induced rapid cytotoxicity”.

Compound `C[C@@H]1COCCN1c1cc(=O)n2c(n1)N(Cc1cncc(Cl)c1)[C@H](C(F)(F)F)CC2` [SAR405] has an IC50 (SARS-CoV-2 [4]; [6]) of 0.376 µM.

For `CCCCCCCCCCCCCCOc1ccc(C(=O)O)o1` [TOFA, 5-(Tetradecyloxy)-2-furoic acid], the IC50 (SARS-CoV-2 [1]; Severe acute respiratory syndrome coronavirus 2) was 1.34 µM, the “distribution of SARS-CoV-2 N and dsRNA” value [2] was “loss of these distinct puncta and dispersion of dsRNA and SARS-CoV-2 N” and the “reduction in RNA synthesis compared with reduction in viral titers” value [3] was “significantly less substantial than the reduction in viral titers”.

For `CCC/C=C/C/C=C/C=C/C=N/NN=O` [Triacsin C], the “inhibition … to infection” value (SARS-CoV-2 [5]) was “minimal efficacy”, the “inhibition … to 4 hpi” value (SARS-CoV-2 [5]) was “remained inhibitory” and the IC50 (SARS-CoV-2 [4]) was 0.04 µM. For the same compound, the “distribution of SARS-CoV-2 N and dsRNA” value [2] was “fewer but larger foci positive for both markers”, the IC90 ([2]; Calu-3) was roughly 50 µM and the “viral RNA levels” value [3] was “reduced RNA levels”. The “early cytotoxic effects (1-20 hours post-treatment)” value (Vero E6 cells; even at the highest concentrations of 50 µM and 500 µM, respectively, Vero E6) was “neither Orlistat nor Triacsin C induced early cytotoxic effects”.

`COc1ccc(CN2CCNCC2)c(OC)c1OC` [Trimetazidine] was tested, and the “inhibition of SARS-CoV-2” value (SARS-CoV-2 [1]; Calu-3, MOI 0.01, 48 hpi) was “Neither compound showed any inhibition”.

For `CC(C)(O)CNc1ncc(-c2ccnc(Nc3ccncc3)n2)c(CC2CC2)n1` [VPS34-IN1], the “inhibition … to infection” value (SARS-CoV-2 [5]) was “inhibited SARS-CoV-2 replication”, the “inhibition … to 4 hpi” value (SARS-CoV-2 [5]) was “inhibition could be observed” and the IC50 (SARS-CoV-2 [4]; [6]) was 0.55 µM. The “distribution of SARS-CoV-2 N and dsRNA” value [2] was “loss of these distinct puncta and dispersion of dsRNA and SARS-CoV-2 N”, the IC90 [2, 6] was roughly 5 µM and the “viral RNA levels” value [3] was “reduced RNA levels”. The “toxicity at the remaining concentrations” value (Vero E6 cells) was “no toxicity was observed” and the “cytotoxicity (rapid decrease in resistance between 1 and 20 hpi)” value (Vero E6 cells; Vero E6) was “induced rapid cytotoxicity”.
